Patent publication US20220411419A1, “SMALL MOLECULE MODULATORS OF MHC-I” (RetroVirox, Inc., priority 2018, published 2022)

Tests used:
[1] = tested on: downmodulation of MHC-I molecules expressed on the surface of HIV infected SupT1 cells; assay: cells; conditions: for EC50: Human immunodeficiency virus 1, SUP-T1, read-out: EC50 for inhibition of MHC-I downmodulation utilizing the R1 parameter; for activity at 100 µM: Human immunodeficiency virus 1, SUP-T1, read-out: R1 @ 100 μM (R1 value for MHC-I downmodulation as % of the vehicle control)
in vitro = conditions: human, uninfected SupT1 cells

Compound: CC1(C)Cc2cccc(OCC(=O)Nc3ccc4c(n3)CCC4)c2O1 [Compound 163, N-(6,7-dihydro-5H-cyclopenta[b]pyridin-2-yl)-2-((2,2-dimethyl-2,3-dihydrobenzofuran-7-yl)oxy)acetamide]
- EC50 [1]: 0.37 µM
- CC50 at 48 h (in vitro): > 125 µM

Compound: C=Cc1ccc(N(C)C(=O)COc2cccc3c2OC(C)(C)C3)nc1 [Compound 79, 2-((2,2-Dimethyl-2,3-dihydrobenzofuran-7-yl)oxy)-N-methyl-N-(5-vinylpyridin-2-yl)acetamide]
- EC50 [1]: 5 µM
- CC50 at 48 h (in vitro): > 125 µM

Compound: CN(C(=O)COc1cccc2c1OC(C)(C)C2)c1nc2c(s1)CCC2 [Compound 162, N-(5,6-Dihydro-4H-cyclopenta[d]thiazol-2-yl)-2-((2,2-dimethyl-2,3-dihydrobenzofuran-7-yl)oxy)-N-methylacetamide]
- EC50 [1]: 0.027 µM
- CC50 at 48 h (in vitro): 124 µM

Compound: COc1cccc(C)c1OCC(=O)N(C)c1nc2c(s1)CCCC2 [Compound 116, 2-(2-Methoxy-6-methylphenoxy)-N-methyl-N-(4,5,6,7-tetrahydrobenzo[d]thiazol-2-yl)acetamide]
- EC50 [1]: 0.2 µM
- CC50 at 48 h (in vitro): > 125 µM

Compound: Cc1csc(N(Cc2ccccc2)C(=O)COc2ccccc2OCc2ccccc2)n1 [Compound 142, N-Benzyl-2-(2-(benzyloxy)phenoxy)-N-(4-methylthiazol-2-yl)acetamide]
- EC50 [1]: 5.5 µM
- CC50 at 48 h (in vitro): > 125 µM

Compound: COc1ccccc1OCC(=O)N(C)c1nc2c(s1)CCCC2 [Compound 130, 2-(2-Methoxyphenoxy)-N-methyl-N-(4,5,6,7-tetrahydrobenzo[d]thiazol-2-yl) acetamide]
- EC50 [1]: 0.38 µM
- CC50 at 48 h (in vitro): > 125 µM

Compound: COC(=O)CN(C(=O)COc1cccc2c1OC(C)(C)C2)c1nc2c(s1)CCCC2 [Compound 99, Methyl 2-(2-((2,2-dimethyl-2,3-dihydrobenzofuran-7-yl)oxy)-N-(4,5,6,7-tetrahydrobenzo[d]thiazol-2-yl)acetamido)acetate]
- EC50 [1]: 22 µM
- CC50 at 48 h (in vitro): > 125 µM

Compound: Cc1ccc(NC(=O)COc2cccc3c2OC(C)(C)C3)nn1 [Compound 2, 2-((2,2-Dimethyl-2,3-dihydrobenzofuran-7-yl)oxy)-N-(6-methylpyridazin-3-yl)acetamide]
- EC50 [1]: 2.1 µM
- CC50 at 48 h (in vitro): > 90 µM

Compound: CC1(C)Cc2cccc(OCC(=O)Nc3nc(C(F)(F)F)cs3)c2O1 [Compound 21, 2-((2,2-dimethyl-2,3-dihydrobenzofuran-7-yl)oxy)-N-(4-(trifluoromethyl)thiazol-2-yl)acetamide]
- EC50 [1]: 0.56 µM
- CC50 at 48 h (in vitro): > 100 µM

Compound: Cn1ccnc1CN(C(=O)COc1cccc2c1OC(C)(C)C2)c1nc2c(s1)CCCC2 [Compound 46, 2-((2,2-Dimethyl-2,3-dihydrobenzofuran-7-yl)oxy)-N-((1-methyl-1H-imidazol-2-yl)methyl)-N-(4,5,6,7-tetrahydrobenzo[d]thiazol-2-yl)acetamide]
- EC50 [1]: 0.059 µM
- CC50 at 48 h (in vitro): > 125 µM

Compound: CC1(C)Cc2cccc(OCC(=O)Nc3nc(C(=O)N4CCCC4)cs3)c2O1 [Compound 150, 2-((2,2-dimethyl-2,3-dihydrobenzofuran-7-yl)oxy)-N-(4-(pyrrolidine-1-carbonyl)thiazol-2-yl)acetamide]
- EC50 [1]: > 25 µM
- activity at 100 µM [1]: 47%
- CC50 (in vitro): > 90 µM
- CC50 at 48 h (in vitro): > 90 µM

Compound: Cc1ccc(NC(=O)COc2cccc3c2OC(C)(C)C3)nc1 [Compound 177, 2-((2,2-Dimethyl-2,3-dihydrobenzofuran-7-yl)oxy)-N-(5-methylpyridin-2-yl) acetamide]
- EC50 [1]: 0.24 µM
- CC50 at 48 h (in vitro): > 100 µM

Compound: CC1(C)Cc2cccc(OCC(=O)N(Cc3ccncc3)c3nc4c(s3)CCCC4)c2O1 [Compound 52, 2-((2,2-Dimethyl-2,3-dihydrobenzofuran-7-yl)oxy)-N-(pyridin-4-ylmethyl)-N-(4,5,6,7-tetrahydrobenzo[d]thiazol-2-yl)acetamide]
- EC50 [1]: 0.032 µM
- CC50 at 48 h (in vitro): 1 µM

Compound: Cc1nc(NC(=O)C(C)(C)Oc2cccc3c2OC(C)(C)C3)sc1C [Compound 19, 2-((2,2-Dimethyl-2,3-dihydrobenzofuran-7-yl)oxy)-N-(4,5-dimethylthiazol-2-yl)-2-methylpropanamide]
- EC50 [1]: > 30 µM
- activity at 100 µM [1]: 20%
- CC50 (in vitro): > 90 µM
- CC50 at 48 h (in vitro): > 90 µM

Compound: CC1(C)Cc2cccc(OCC(=O)Nc3nc(C4CC4)cs3)c2O1 [Compound 5, N-(4-Cyclopropylthiazol-2-yl)-2-((2,2-dimethyl-2,3-dihydrobenzofuran-7-yl)oxy)acetamide]
- EC50 [1]: 0.55 µM
- CC50 at 48 h (in vitro): > 100 µM

Compound: Cc1nc(N(Cc2ccccc2)C(=O)COc2cccc3c2OC(C)(C)C3)sc1C [Compound 31, N-Benzyl-2-((2,2-dimethyl-2,3-dihydrobenzofuran-7-yl)oxy)-N-(4,5-dimethylthiazol-2-yl)acetamide]
- EC50 [1]: 0.21 µM
- CC50 at 48 h (in vitro): > 100 µM

Compound: Cc1csc(N(C(=O)COc2cccc3c2OC(C)(C)C3)c2cncnc2)n1 [Compound 97, 2-((2,2-Dimethyl-2,3-dihydrobenzofuran-7-yl)oxy)-N-(4-methylthiazol-2-yl)-N-(pyrimidin-5-yl)acetamide]
- EC50 [1]: > 25 µM
- activity at 100 µM [1]: 5.4%
- CC50 (in vitro): > 125 µM
- CC50 at 48 h (in vitro): > 125 µM

Compound: Cc1cccc(OCC(=O)N(C)c2nc3c(s2)CCCC3)c1Br [Compound 117, 2-(2-Bromo-3-methylphenoxy)-N-methyl-N-(4,5,6,7-tetrahydrobenzo[d]thiazol-2-yl)acetamide]
- EC50 [1]: 0.95 µM
- CC50 at 48 h (in vitro): > 125 µM

Compound: CCc1ccc(NC(=O)COc2cccc3c2OC(C)(C)C3)nn1 [Compound 85, 2-((2,2-Dimethyl-2,3-dihydrobenzofuran-7-yl)oxy)-N-(6-ethylpyridazin-3-yl)acetamide]
- EC50 [1]: 0.38 µM
- CC50 at 48 h (in vitro): > 100 µM

Compound: C=Cc1ccc(NC(=O)COc2cccc3c2OC(C)(C)C3)nc1 [Compound 67, 2-((2,2-dimethyl-2,3-dihydrobenzofuran-7-yl)oxy)-N-(5-vinylpyridin-2-yl)acetamide]
- EC50 [1]: 2.2 µM
- CC50 at 48 h (in vitro): > 125 µM

Compound: Cc1csc(N(Cc2ccncc2)C(=O)COc2cccc3c2OC(C)(C)C3)n1 [Compound 35, 2-((2,2-Dimethyl-2,3-dihydrobenzofuran-7-yl)oxy)-N-(4-methylthiazol-2-yl)-N-(pyridin-4-ylmethyl)acetamide]
- EC50 [1]: 1.42 µM
- CC50 at 48 h (in vitro): > 100 µM

Compound: Cc1ccc(N(C(=O)COc2cccc3c2OC(C)(C)C3)c2ccccc2)nn1 [Compound 89, 2-((2,2-Dimethyl-2,3-dihydrobenzofuran-7-yl)oxy)-N-(6-methylpyridazin-3-yl)-N-phenylacetamide]
- EC50 [1]: 0.38 µM
- CC50 at 48 h (in vitro): > 100 µM

Compound: CC1(C)Cc2cccc(OCC(=O)Nc3nc4c(Br)cccc4s3)c2O1 [Compound 1, N-(4-bromobenzo[d]thiazol-2-yl)-2-((2,2-dimethyl-2,3-dihydrobenzofuran-7-yl)oxy)acetamide]
- EC50 [1]: 0.12 µM
- CC50 at 48 h (in vitro): > 90 µM

Compound: CC(C)(C)OC(=O)N1CCC(CNC(=O)c2csc(NC(=O)COc3cccc4c3OC(C)(C)C4)n2)C1 (centres unmarked) [Compound 155, tert-Butyl 3-((2-(2-((2,2-dimethyl-2,3-dihydrobenzofuran-7-yl)oxy)acetamido)thiazole-4-carboxamido)methyl)pyrrolidine-1-carboxylate]
- EC50 [1]: > 25 µM
- activity at 100 µM [1]: ≥ 100%
- CC50 (in vitro): > 90 µM
- CC50 at 48 h (in vitro): > 90 µM
